# Experimental data as given in US20230220035A1 (DONG-A ST CO., LTD., published 2023).
# Tests used:
# in vivo = conditions: cynomolgus monkey, sc
# Text: Cynomolgus monkeys were used to evaluate the pharmacokinetics in monkeys of the acylated oxyntomodulin peptide analogs according to the present invention.
# GLP-1 receptor = GLP-1 receptor (Homo sapiens, UniProt P43220); test: Human GLP-1 receptor activation assay (CRE-luciferase); type: cell-based; parameters: host or cells: CHO-K1; conditions: for Emax: CHO-K1, 6 h, read-out: GLP-1 receptor Maximum activation (% vs GLP-1); for EC50: CHO-K1 cells transiently transfected, luciferase, 6 hours, 0.1% BSA
# Experimental: (§1) Then, the resulting increased luciferase activity was evaluated as a measurement of the effect on each receptor activation.
# (§2) For positive control, endogenous ligand GLP-1 or glucagon was used for respective evaluation. The above-mentioned acylated oxyntomodulin peptide analogs of Comparative Example 8-12 were synthesized and used as comparative examples.
# (§3) After 3 hours of transfection, medium was exchanged to Alpha Minimal Essential Medium (α-MEM) comprising 10% fetal bovine serum (FBS). Next day, the medium was exchanged to α-MEM comprising the acylated oxyntomodulin peptide analog of the present invention and 0.1% bovine serum albumin (BSA). After 6 hours, dual luciferase assay reagent (Promega) was added in the same amount as the medium in which the cells were submerged, and firefly luciferase and Renilla luciferase activities were successively measured. Firefly luciferase activity values were corrected against Renilla luciferase activity to yield transfection efficiency.
# glucagon receptor = glucagon receptor (Homo sapiens, UniProt P47871); test: Human glucagon receptor activation assay (CRE-luciferase); type: cell-based; parameters: host or cells: CHO-K1; conditions: CHO-K1 cells transiently transfected; for Emax: 6 h, relative to glucagon, read-out: GCG receptor Maximum activation (% vs GCG); for EC50: 6 hours, 0.1% BSA, read-out: GCG receptor EC50
# Chain of glucagon receptor (P47871 26-477): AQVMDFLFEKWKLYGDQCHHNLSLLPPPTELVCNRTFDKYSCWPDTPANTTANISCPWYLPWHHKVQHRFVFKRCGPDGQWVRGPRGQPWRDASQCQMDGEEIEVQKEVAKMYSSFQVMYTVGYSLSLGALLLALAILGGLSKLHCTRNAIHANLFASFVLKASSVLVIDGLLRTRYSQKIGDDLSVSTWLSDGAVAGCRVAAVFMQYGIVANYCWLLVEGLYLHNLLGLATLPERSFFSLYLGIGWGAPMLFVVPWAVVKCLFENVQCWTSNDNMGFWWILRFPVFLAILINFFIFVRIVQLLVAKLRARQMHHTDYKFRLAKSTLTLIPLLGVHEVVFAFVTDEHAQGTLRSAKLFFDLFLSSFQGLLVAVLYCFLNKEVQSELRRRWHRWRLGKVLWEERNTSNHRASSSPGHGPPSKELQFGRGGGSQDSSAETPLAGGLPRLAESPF
# Experimental: as §1, §2, §3
# Chain of GLP-1 receptor (P43220 24-463): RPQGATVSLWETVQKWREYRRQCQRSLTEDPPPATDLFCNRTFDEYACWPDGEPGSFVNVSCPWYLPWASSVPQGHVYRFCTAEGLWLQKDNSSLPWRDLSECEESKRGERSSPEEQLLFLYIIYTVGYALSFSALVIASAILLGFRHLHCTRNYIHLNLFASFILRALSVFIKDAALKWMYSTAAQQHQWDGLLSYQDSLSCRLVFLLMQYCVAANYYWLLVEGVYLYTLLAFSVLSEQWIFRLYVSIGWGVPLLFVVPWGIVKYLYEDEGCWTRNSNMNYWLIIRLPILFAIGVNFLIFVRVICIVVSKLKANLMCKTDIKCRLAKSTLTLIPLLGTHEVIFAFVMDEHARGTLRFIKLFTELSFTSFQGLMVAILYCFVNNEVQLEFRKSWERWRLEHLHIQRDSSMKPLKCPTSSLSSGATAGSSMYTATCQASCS
SMILES,half-life (in vivo; Monkey PK (S.C. half-life)) [h],half-life (in vivo; monkey PK half-life) [h],Emax (GLP-1 receptor) [%],EC50 (GLP-1 receptor) [nM],Emax (glucagon receptor) [%],EC50 (glucagon receptor) [nM]
CCCCCCCCCCCCCCCCCC(=O)N[C@@H](CCC(=O)NCCOCCOCC(=O)NCCOCCOCC(=O)NCCCC[C@H](NC(=O)[C@H](CC(=O)O)NC(=O)[C@H](CO)NC(=O)[C@@H](NC(=O)[C@H](Cc1ccccc1)NC(=O)[C@@H](NC(=O)CNC(=O)[C@H](CCC(N)=O)NC(=O)C(C)(C)NC(=O)[C@@H](N)Cc1c[nH]cn1)[C@@H](C)O)[C@@H](C)O)C(=O)N[C@@H](CO)C(=O)N[C@@H](CCCCN)C(=O)N[C@@H](Cc1ccc(O)cc1)C(=O)N[C@@H](CC(C)C)C(=O)N[C@@H](CC(=O)O)C(=O)NC(C)(C)C(=O)N[C@@H](CCCNC(=N)N)C(=O)N[C@@H](CCCNC(=N)N)C(=O)N[C@@H](C)C(=O)N[C@@H](CCC(N)=O)C(=O)N[C@@H](CC(=O)O)C(=O)N[C@@H](Cc1ccccc1)C(=O)N[C@H](C(=O)N[C@@H](CCC(N)=O)C(=O)N[C@@H](Cc1c[nH]c2ccccc12)C(=O)N[C@@H](CC(C)C)C(=O)N[C@@H](CCSC)C(=O)N[C@@H](CC(N)=O)C(=O)N[C@H](C(=O)N[C@@H](CCCCN)C(=O)N[C@@H](CCC(=O)O)C(=O)N[C@@H](Cc1ccc(O)cc1)C(=O)N[C@@H](CCC(=O)O)C(=O)N[C@@H](CCCCNC(=O)[C@@H](N)CCCCNC(=O)CCCCCCCCCCCCCCCCC(=O)O)C(=O)N[C@@H](CCC(=O)O)C(=O)N[C@@H](Cc1ccc(O)cc1)C(=O)N[C@@H](CCC(=O)O)C(=O)O)[C@@H](C)O)C(C)C)C(=O)O [Compound 4],18 to 24,12 to 24,87.9,0.1 to 1,95.4,≥ 1
CCCCCCCCCCCCCCCCCC(=O)N[C@@H](CCC(=O)NCCOCCOCC(=O)NCCOCCOCC(=O)NCCCC[C@H](NC(=O)[C@H](CC(=O)O)NC(=O)[C@H](CO)NC(=O)[C@@H](NC(=O)[C@H](Cc1ccccc1)NC(=O)[C@@H](NC(=O)CNC(=O)[C@H](CCC(N)=O)NC(=O)C(C)(C)NC(=O)[C@@H](N)Cc1c[nH]cn1)[C@@H](C)O)[C@@H](C)O)C(=O)N[C@@H](CO)C(=O)N[C@@H](CCCCN)C(=O)N[C@@H](Cc1ccc(O)cc1)C(=O)N[C@@H](CC(C)C)C(=O)N[C@@H](CC(=O)O)C(=O)NC(C)(C)C(=O)N[C@@H](CCCNC(=N)N)C(=O)N[C@@H](CCCNC(=N)N)C(=O)N[C@@H](C)C(=O)N[C@@H](CCC(N)=O)C(=O)N[C@@H](CC(=O)O)C(=O)N[C@@H](Cc1ccccc1)C(=O)N[C@H](C(=O)N[C@@H](CCC(N)=O)C(=O)N[C@@H](Cc1c[nH]c2ccccc12)C(=O)N[C@@H](CC(C)C)C(=O)N[C@@H](CCSC)C(=O)N[C@@H](CC(N)=O)C(=O)N[C@H](C(=O)N[C@@H](CCCCN)C(=O)N[C@@H](CCC(=O)O)C(=O)N[C@@H](Cc1ccc(O)cc1)C(=O)N[C@@H](CCC(=O)O)C(=O)N[C@@H](CCCCNC(=O)COCCOCCNC(=O)COCCOCCNC(=O)COCCOCCNC(=O)CC[C@H](NC(=O)CCCCCCCCCCCCCCCCC(=O)O)C(=O)O)C(=O)N[C@@H](CCC(=O)O)C(=O)N[C@@H](Cc1ccc(O)cc1)C(=O)N[C@@H](CCC(=O)O)C(=O)O)[C@@H](C)O)C(C)C)C(=O)O [Compound 5],18 to 24,12 to 24,93.6,0.1 to 1,99.4,0.1 to 1
CCCCCCCCCCCCCCCCCC(=O)N[C@@H](CCC(=O)NCCOCCOCC(=O)NCCOCCOCC(=O)NCCCC[C@H](NC(=O)[C@H](CC(=O)O)NC(=O)[C@H](CO)NC(=O)[C@@H](NC(=O)[C@H](Cc1ccccc1)NC(=O)[C@@H](NC(=O)CNC(=O)[C@H](CCC(N)=O)NC(=O)C(C)(C)NC(=O)[C@@H](N)Cc1c[nH]cn1)[C@@H](C)O)[C@@H](C)O)C(=O)N[C@@H](CO)C(=O)N[C@@H](CCCCN)C(=O)N[C@@H](Cc1ccc(O)cc1)C(=O)N[C@@H](CC(C)C)C(=O)N[C@@H](CC(=O)O)C(=O)NC(C)(C)C(=O)N[C@@H](CCCNC(=N)N)C(=O)N[C@@H](CCCNC(=N)N)C(=O)N[C@@H](C)C(=O)N[C@@H](CCC(N)=O)C(=O)N[C@@H](CC(=O)O)C(=O)N[C@@H](Cc1ccccc1)C(=O)N[C@H](C(=O)N[C@@H](CCC(N)=O)C(=O)N[C@@H](Cc1c[nH]c2ccccc12)C(=O)N[C@@H](CC(C)C)C(=O)N[C@@H](CCSC)C(=O)N[C@@H](CC(N)=O)C(=O)N[C@H](C(=O)N[C@@H](CCCCN)C(=O)N[C@@H](CCC(=O)O)C(=O)N[C@@H](Cc1ccc(O)cc1)C(=O)N[C@@H](CCC(=O)O)C(=O)N[C@@H](CCCCNC(=O)CCCCCCCCCCCCCCC(N)=O)C(=O)N[C@@H](CCC(=O)O)C(=O)N[C@@H](Cc1ccc(O)cc1)C(=O)N[C@@H](CCC(=O)O)C(=O)O)[C@@H](C)O)C(C)C)C(=O)O [Compound 11],6 to 12,< 12,92.8,< 0.1,98.5,< 0.1

# Second part, the molecule after the results:
half-life (in vivo; Monkey PK (S.C. half-life)) [h],half-life (in vivo; monkey PK half-life) [h],Emax (GLP-1 receptor) [%],EC50 (GLP-1 receptor) [nM],Emax (glucagon receptor) [%],EC50 (glucagon receptor) [nM],SMILES
12 to 18,12 to 24,83.8,0.1 to 1,89.1,0.1 to 1,CCCCCCCCCCCCCCCCCC(=O)N[C@@H](CCC(=O)NCCOCCOCC(=O)NCCOCCOCC(=O)NCCCC[C@H](NC(=O)[C@H](CC(=O)O)NC(=O)[C@H](CO)NC(=O)[C@@H](NC(=O)[C@H](Cc1ccccc1)NC(=O)[C@@H](NC(=O)CNC(=O)[C@H](CCC(N)=O)NC(=O)C(C)(C)NC(=O)[C@@H](N)Cc1c[nH]cn1)[C@@H](C)O)[C@@H](C)O)C(=O)N[C@@H](CO)C(=O)N[C@@H](CCCCN)C(=O)N[C@@H](Cc1ccc(O)cc1)C(=O)N[C@@H](CC(C)C)C(=O)N[C@@H](CC(=O)O)C(=O)NC(C)(C)C(=O)N[C@@H](CCCNC(=N)N)C(=O)N[C@@H](CCCNC(=N)N)C(=O)N[C@@H](C)C(=O)N[C@@H](CCC(N)=O)C(=O)N[C@@H](CC(=O)O)C(=O)N[C@@H](Cc1ccccc1)C(=O)N[C@H](C(=O)N[C@@H](CCC(N)=O)C(=O)N[C@@H](Cc1c[nH]c2ccccc12)C(=O)N[C@@H](CC(C)C)C(=O)N[C@@H](CCSC)C(=O)N[C@@H](CC(N)=O)C(=O)N[C@H](C(=O)N[C@@H](CCCCN)C(=O)N[C@@H](CCC(=O)O)C(=O)N[C@@H](Cc1ccc(O)cc1)C(=O)N[C@@H](CCC(=O)O)C(=O)N[C@@H](CCCCNC(=O)[C@@H](N)CCCCNC(=O)COCCOCCNC(=O)COCCOCCNC(=O)COCCOCCNC(=O)CC[C@H](NC(=O)CCCCCCCCCCCCCCCCC(=O)O)C(=O)O)C(=O)N[C@@H](CCC(=O)O)C(=O)N[C@@H](Cc1ccc(O)cc1)C(=O)N[C@@H](CCC(=O)O)C(=O)O)[C@@H](C)O)C(C)C)C(=O)O [Compound 6]
6 to 12,< 12,70.4,0.1 to 1,73.3,0.1 to 1,CCCCCCCCCCCCCCCCCC(=O)N[C@@H](CCC(=O)NCCOCCOCC(=O)NCCOCCOCC(=O)NCCCC[C@H](NC(=O)[C@H](CC(=O)O)NC(=O)[C@H](CO)NC(=O)[C@@H](NC(=O)[C@H](Cc1ccccc1)NC(=O)[C@@H](NC(=O)CNC(=O)[C@H](CCC(N)=O)NC(=O)C(C)(C)NC(=O)[C@@H](N)Cc1c[nH]cn1)[C@@H](C)O)[C@@H](C)O)C(=O)N[C@@H](CO)C(=O)N[C@@H](CCCCN)C(=O)N[C@@H](Cc1ccc(O)cc1)C(=O)N[C@@H](CC(C)C)C(=O)N[C@@H](CC(=O)O)C(=O)NC(C)(C)C(=O)N[C@@H](CCCNC(=N)N)C(=O)N[C@@H](CCCNC(=N)N)C(=O)N[C@@H](C)C(=O)N[C@@H](CCC(N)=O)C(=O)N[C@@H](CC(=O)O)C(=O)N[C@@H](Cc1ccccc1)C(=O)N[C@H](C(=O)N[C@@H](CCC(N)=O)C(=O)N[C@@H](Cc1c[nH]c2ccccc12)C(=O)N[C@@H](CC(C)C)C(=O)N[C@@H](CCSC)C(=O)N[C@@H](CC(N)=O)C(=O)N[C@H](C(=O)N[C@@H](CCCCN)C(=O)N[C@@H](CCC(=O)O)C(=O)N[C@@H](Cc1ccc(O)cc1)C(=O)N[C@@H](CCC(=O)O)C(=O)N[C@@H](CCCCNC(=O)CCCCCCCCCCCCCCC)C(=O)N[C@@H](CCC(=O)O)C(=O)N[C@@H](Cc1ccc(O)cc1)C(=O)N[C@@H](CCC(=O)O)C(=O)O)[C@@H](C)O)C(C)C)C(=O)O [Compound 9]
< 6,< 12,105,< 0.1,110,< 0.1,CCCCCCCCCCCCCCCCCC(=O)N[C@@H](CCC(=O)NCCOCCOCC(=O)NCCOCCOCC(=O)NCCCC[C@H](NC(=O)[C@H](CC(=O)O)NC(=O)[C@H](CO)NC(=O)[C@@H](NC(=O)[C@H](Cc1ccccc1)NC(=O)[C@@H](NC(=O)CNC(=O)[C@H](CCC(N)=O)NC(=O)C(C)(C)NC(=O)[C@@H](N)Cc1c[nH]cn1)[C@@H](C)O)[C@@H](C)O)C(=O)N[C@@H](CO)C(=O)N[C@@H](CCCCN)C(=O)N[C@@H](Cc1ccc(O)cc1)C(=O)N[C@@H](CC(C)C)C(=O)N[C@@H](CC(=O)O)C(=O)NC(C)(C)C(=O)N[C@@H](CCCNC(=N)N)C(=O)N[C@@H](CCCNC(=N)N)C(=O)N[C@@H](C)C(=O)N[C@@H](CCC(N)=O)C(=O)N[C@@H](CC(=O)O)C(=O)N[C@@H](Cc1ccccc1)C(=O)N[C@H](C(=O)N[C@@H](CCC(N)=O)C(=O)N[C@@H](Cc1c[nH]c2ccccc12)C(=O)N[C@@H](CC(C)C)C(=O)N[C@@H](CCSC)C(=O)N[C@@H](CC(N)=O)C(=O)N[C@H](C(=O)N[C@@H](CCCCN)C(=O)N[C@@H](CCC(=O)O)C(=O)N[C@@H](Cc1ccc(O)cc1)C(=O)N[C@@H](CCC(=O)O)C(=O)N[C@@H](CCCCNC(=O)CCCCCCCCCCCCC(N)=O)C(=O)N[C@@H](CCC(=O)O)C(=O)N[C@@H](Cc1ccc(O)cc1)C(=O)N[C@@H](CCC(=O)O)C(=O)O)[C@@H](C)O)C(C)C)C(=O)O [Compound 10]
